Source: patent US12617785B2, “Pyrrolo[2,3-b]pyridine-3-carboxamide compositions and methods for ameliorating hearing loss” (priority 2020, dated 2026)
pIC50: −log10 of the molar value.

Legend:
Lats1 [1] = target: T1, Lats1 (Homo sapiens, UniProt O95835); test: In vitro kinase assay (HTRF KinEASE-STK S1) Lats1, 10 uM ATP; type: biochemical
T1 construct: purchased Carna 01-123
T1 sequence (O95835 1-1130): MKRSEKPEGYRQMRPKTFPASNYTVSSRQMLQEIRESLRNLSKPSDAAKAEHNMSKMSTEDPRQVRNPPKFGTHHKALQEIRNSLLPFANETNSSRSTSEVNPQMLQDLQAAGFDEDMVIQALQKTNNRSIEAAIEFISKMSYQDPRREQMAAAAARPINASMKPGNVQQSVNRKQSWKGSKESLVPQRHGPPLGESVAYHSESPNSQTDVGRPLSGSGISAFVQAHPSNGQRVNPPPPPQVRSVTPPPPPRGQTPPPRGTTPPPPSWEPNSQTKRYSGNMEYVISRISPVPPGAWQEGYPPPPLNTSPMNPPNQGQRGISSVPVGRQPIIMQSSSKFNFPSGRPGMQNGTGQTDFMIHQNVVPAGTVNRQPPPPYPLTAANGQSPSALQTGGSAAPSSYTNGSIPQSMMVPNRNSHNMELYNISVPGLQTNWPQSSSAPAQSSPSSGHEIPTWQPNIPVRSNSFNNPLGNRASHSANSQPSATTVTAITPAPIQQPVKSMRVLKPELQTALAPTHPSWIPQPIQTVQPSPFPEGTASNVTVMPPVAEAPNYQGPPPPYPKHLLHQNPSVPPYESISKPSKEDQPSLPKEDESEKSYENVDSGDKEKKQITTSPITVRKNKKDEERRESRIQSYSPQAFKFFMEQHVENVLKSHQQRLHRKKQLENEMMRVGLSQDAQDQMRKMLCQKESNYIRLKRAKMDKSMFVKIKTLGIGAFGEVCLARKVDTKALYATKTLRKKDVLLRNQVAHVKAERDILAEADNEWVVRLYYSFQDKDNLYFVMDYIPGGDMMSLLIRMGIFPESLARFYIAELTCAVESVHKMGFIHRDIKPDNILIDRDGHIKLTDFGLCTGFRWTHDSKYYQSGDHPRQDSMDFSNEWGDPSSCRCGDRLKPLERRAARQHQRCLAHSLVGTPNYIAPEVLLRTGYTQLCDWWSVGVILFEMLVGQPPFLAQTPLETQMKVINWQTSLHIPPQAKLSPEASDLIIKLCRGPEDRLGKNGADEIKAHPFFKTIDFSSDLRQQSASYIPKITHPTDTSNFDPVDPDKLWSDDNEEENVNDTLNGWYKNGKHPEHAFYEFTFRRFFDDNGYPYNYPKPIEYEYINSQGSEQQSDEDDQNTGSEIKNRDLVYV
Protocol: IVKA assay at 10 uM method:
(§1) Reactions were conducted with 10 μM STK1 substrate and 10 μM ATP or 2 mM ATP as shown below. […] The enzyme, substrate, ATP, and test compound of the invention were combined in a low-volume 384-well plate and shaken for 50 min at room temperature, unless otherwise indicated. The reaction was stopped by adding the detection reagents, which were prepared at an 8:1 biotin:streptavidin ratio and shaking for 60 min at room temperature. All reactions were conducted in triplicate and a Synergy NEO (Biotek) was used to detect the signal.

Lats1 [2] = target: T1, Lats1; test: In vitro kinase assay (HTRF KinEASE-STK S1) Lats1, 2 mM ATP; type: biochemical
Protocol: as §1
Assay was carried out in a 384 well plate. Each drug dosage curve was done with 16 points of 3-fold dilutions in 100% DMSO, and triplicate.

[3] = test system: adult utricular supporting cells; test: EdU proliferation assay in cultured adult utricles; type: cell-based, mice; conditions: after 5 days of treatment; control=20; p=0.021
Protocol: (§2) The compound T01 was tested extensively to explore its mechanism of action and its utility in regenerating hair cells of the ear. The effects of the compounds were tested on utricles isolated from mice eight to twelve weeks of age. Internal ears were dissected from mice euthanized with fluothane and placed into ice-cold Hank's balanced salt solution, and cultured as previously described by Gnedeva, K. & Hudspeth [Proc. Natl. Acad. Sci. 112, 14066-14071 (2015)].
For proliferation assays, utricles were cultured with 10 μM 5-ethynyl-2′-deoxyuridine (EdU) that was detected with click chemistry.
(§3) ; T01-treated=250 EdU+ supporting cells; […]

Yap = Yap phosphorylation by western blot in cultured utricles; type: cell-based; conditions: utricles from adult mice
Protocol: as §2, §3

[4] = 10 uM ATP, read-out: LATS1_HTRF_10 uM ATP IC50
[5] = 2 mM ATP, read-out: LATS1_HTRF_2 mM ATP IC50

Structure (SMILES) | pIC50 (Lats1 [1]; [4]) | pIC50 (Lats1 [2]; [5]) | further results
NCc1ccccc1Cn1ccs/c1=N\C(=O)c1c[nH]c2ncccc12 [T43, (Z)—N-(3-(2-(aminomethyl)benzyl)thiazol-2(3H)-ylidene)-1H-pyrrolo[2,3-b]pyridine-3-carboxamide] | 8.66 | 6.85 | 
Cc1cs/c(=N\C(=O)c2c[nH]c3ncccc23)n1Cc1ccccc1 [T49] |  |  | pIC50 (Lats1 [1]): 8.57; pIC50 (Lats1 [2]): 9.30
CC(c1ccccc1)n1ccs/c1=N\C(=O)c1c[nH]c2ncccc12 (stereo not shown) [T39, (Z)—N-(3-(1-Phenylethyl)thiazol-2(3H)-ylidene)-1H-pyrrolo[2,3-b]pyridine-3-carboxamide] |  |  | pIC50 (Lats1 [1]): 8.72; pIC50 (Lats1 [2]): 7.23
CC(N)CCn1ccs/c1=N\C(=O)c1c[nH]c2ncccc12 (stereo not shown) [T41, (Z)—N-(3-(3-aminobutyl)thiazol-2(3H)-ylidene)-1H-pyrrolo[2,3-b]pyridine-3-carboxamide] | 8.36 | 6.52 | 
O=C(/N=c1\sccn1Cc1ccccc1)c1c[nH]c2ncccc12 [T01, (Z)—N-(3-benzylthiazol-2(3H)-ylidene)-1H-pyrrolo[2,3-b]pyridine-3-carboxamide] |  |  | EdU+ supporting cells [3]: 250; level of Yap phosphorylation as detected by western blot (Yap): striking reduction
O=C(/N=c1\sccn1-c1ccccc1)c1c[nH]c2ncccc12 [T14] | 9.52 | 8.52 | 
O=C(/N=c1\occn1Cc1ccccc1)c1c[nH]c2ncccc12 [T25] | 8.72 | 7.23 | 
N#Cc1cccc(Cn2ccs/c2=N\C(=O)c2c[nH]c3ncccc23)c1 [T44, (Z)—N-(3-(3-cyanobenzyl)thiazol-2(3H)-ylidene)-1H-pyrrolo[2,3-b]pyridine-3-carboxamide] | 6.59 |  | 
NCc1cccc(Cn2ccs/c2=N\C(=O)c2c[nH]c3ncccc23)c1 [T45, (Z)—N-(3-(3-(aminomethyl)benzyl)thiazol-2(3H)-ylidene)-1H-pyrrolo[2,3-b]pyridine-3-carboxamide] | 7.51 | 6.51 | 
Cn1nccc1Cn1ccs/c1=N\C(=O)c1c[nH]c2ncccc12 [T58] | 6.89 |  | 
Cn1ccs/c1=N\C(=O)c1c[nH]c2ncccc12 [T37, (Z)—N-(3-methylthiazol-2(3H)-ylidene)-1H-pyrrolo[2,3-b]pyridine-3-carboxamide] | 6.63 |  | 
